Values after ≈ are worked out from the molar mass of the structure shown. Counter-ions that a name gives are not always drawn.
Assays:
Staphylococcus aureus = assay: in vivo antibacterial activity, mice infected intraperitoneally, oral dosing; conditions: oral at infection and 4 hours later, Reed-Muench, mortality, read-out: In-Vivo ED50, S. aureus
Description: (§1) The in vivo antibacterial activity of the compounds was determined as follows.
(§2) Cultures of Staphylococcus aureus or Escherichia coli were grown from stored frozen stocks in trypticase soy broth (BBL), a standard bacteriological growth medium, with shaking until a turbidity of optical density (650μ) of 0.4-0.5 was attained. These cultures were centrifuged and resuspended in either 50% hog gastric mucin for Staphyloccus aureus or saline for Escherichia coli. These suspensions were injected intraperitoneally at dilutions calculated to cause 90-100% mortality within 7 days of the mice of the control groups.
(§3) The compounds were suspended or dissolved in 0.25% Methocel, 15 CPS, at various concentrations. Mice were dosed orally by intubation at the time of infection and again four hours later. Mortality was recorded daily until test termination. The estimated dose 50 (ED50) was calculated by the Reed-Muench method, as described in Reed, L. J. and Muench, H., American Journal of Hygiene, 27, 493-497 (1938), the disclosure of which is herein incorporated by reference.

Escherichia coli = assay: as above; conditions: oral at infection and 4 hours later, Reed-Muench, mortality, read-out: In-Vivo ED50, E. coli
Description: as §1, §2, §3

[1] = tested on: Staphylococcus epidermidis; assay: 24-hour minimum inhibitory concentration, microdilution method, Mueller-Hinton broth; type: cell-based; conditions: S. epidermidis, read-out: In-Vitro MIC
Description: The compounds listed below in Table 1 were tested for in vivo and in vitro antibacterial activity. The twenty-four hour minimum inhibitory in vitro concentrations (MIC) for a test strain of Staphylococcus epidermidis of the compounds were determined using a standard microdilution method with Mueller-Hinton broth. This method is described in Conrath, Theodore B., 1972 Handbook of Microtiter Procedures, Dynatech Corporation, Cambridge, Mass., the disclosure of which is herein incorporated by reference. | ^1 24Hour minimum inhibitory concentration: determined by | microdilution method with S. epidermidis as the test organism.

Bacteroides sp. = assay: in-vitro susceptibility of anaerobic clinical isolates, agar dilution; type: cell-based; conditions: 48-hour, 32 isolates (chloromethyl compound), 28 isolates (hydroxymethyl compound)
Description: (§4) The inhibitory activity for anaerobic bacteria of 5-chloromethyl-3-(4-difluoromethylsulfonyl)phenyl-2-oxazolidinone and (1)-5-hydroxymethyl-3-(4-methylsulfonyl)phenyl-2-oxazolidinone was determined using the agar dilution method described in Barry, Arthur L., The Antimicrobic Susceptibility Test: Principles and Practices, 1976 Lea & Febiger, Philadelphia.
(§5) ^1 48hour minimum inhibitory concentration determined by agar dilutio

Fusobacterium sp. = assay: as above; type: cell-based; conditions: 48-hour, 4 isolates tested for each compound
Description: as §4, §5

Clostridium sp. = assay: as above; type: cell-based; conditions: 48-hour, 4 isolates tested for each compound
Description: as §4, §5

Gram positive cocci = assay: as above; type: cell-based; conditions: 48-hour, 7 isolates tested for each compound
Description: as §4, §5

anaerobic bacteria = assay: inhibitory activity for anaerobic bacteria, agar dilution; type: cell-based; conditions: in words, from Table 3
Description: as §4

Streptococci sp. = assay: in-vitro susceptibility of clinical isolates, agar dilution; type: cell-based; conditions: 24-hour, 35° C., 12 isolates
Description: (§6) The in-vitro antibacterial activity spectrum of (1)-5-Hydroxymethyl-3-(4-methylsulfonyl)phenyl-2-oxazolidinone, determined by an agar dilution procedure, is shown in table 2. This procedure is known in the art and can be summarized as follows. […] The agar plates were inoculated with a 0.001 ml calibrated loopful of bacterial inoculum diluted to contain 5×10^6 colony forming units (CFU) per ml. […] The test organisms included clinical bacterial isolates representing two gram positive and nine gram negative genera.
(§7) ^1 MIC: Minimum Inhibitory Concentration determined by agar dilution

E. coli = assay: as above; type: cell-based; conditions: Escherichia coli, 24-hour, 35° C., 86 isolates
Description: as §6, §7

Shigella sp. = assay: as above; type: cell-based; conditions: 24-hour, 35° C., 9 isolates
Description: as §6, §7

Hemophilus influenzae = assay: as above; type: cell-based; conditions: Haemophilus influenzae, 24-hour, 35° C., 4 isolates
Description: as §6, §7

Serratia sp. = assay: as above; type: cell-based; conditions: 24-hour, 35° C., 44 isolates
Description: as §6, §7

Klebsiella sp. = assay: as above; type: cell-based; conditions: 24-hour, 35° C., 68 isolates
Description: as §6, §7

Salmonella sp. = assay: as above; type: cell-based; conditions: 24-hour, 35° C., 6 isolates
Description: as §6, §7

Proteus sp. = assay: as above; type: cell-based; conditions: 24-hour, 35° C., 88 isolates
Description: as §6, §7

Neisseria sp. = assay: as above; type: cell-based; conditions: 24-hour, 35° C., 42 isolates
Description: as §6, §7

Enterobacter sp. = assay: as above; type: cell-based; conditions: 24-hour, 35° C., 41 isolates
Description: as §6, §7

Pseudomonas sp. = assay: as above; type: cell-based; conditions: 24-hour, 35° C., 78 isolates
Description: as §6, §7

Staphylococci sp. = assay: as above; type: cell-based; conditions: 24-hour, 35° C., 37 isolates
Description: as §6, §7

Providencia sp. = assay: as above; type: cell-based; conditions: 24-hour, 35° C., 12 isolates
Description: as §6, §7

Row | SMILES | ED50 (Staphylococcus aureus) [mg/kg] | MIC [1] [µg/mL] | other results
1 | CS(=O)(=O)c1ccc(N2CC(COC(=O)CCC(=O)O)OC2=O)cc1 (racemic) [(dl)-3-(4-Methylsulfonylphenyl)-2-oxooxazolidin-5-ylmethyl 1,4-Butanedioic Acid Mono Ester, Mono Sodium Salt] | 26 | > 50 | ED50 (Escherichia coli): 40 mg/kg
2 | O=C1OC(CO)CN1c1ccc(S(=O)(=O)C(F)(F)F)cc1 (stereo not drawn) [5-Hydroxymethyl-3-(4-trifluoromethylsulfonylphenyl)-2-oxazolidinone] | 20 | 12.5 (≈ 38.4 µM) | 
3 | C[C@H](N)C(=O)OCC1CN(c2ccc(S(C)(=O)=O)cc2)C(=O)O1 (stereo partly drawn) [5-(L)-Alanyloxymethyl-(1)-3-(4-methylsulfonyl)phenyl-2-oxazolidinone trifluoroacetic acid salt] | 14 | 25 | 
4 | CS(=O)(=O)c1ccc(N2CC(CCl)OC2=O)cc1 (stereo not drawn) [5-Chloromethyl-3-(4-methylsulfonylphenyl)-2-oxazolidinone] | 29 | 5 (≈ 17.3 µM) | ED50 (Escherichia coli): 63 mg/kg
5 | O=C1OC(CCl)CN1c1ccc(S(=O)(=O)C(F)F)cc1 (stereo not drawn) [5-Chloromethyl-3-(4-difluoromethylsulfonylphenyl)-2-oxazolidinone] | 20 | 2.5 (≈ 7.68 µM) | MIC (Bacteroides sp.): 1.8 µg/mL (≈ 5.53 µM); MIC (Fusobacterium sp.): 0.06 µg/mL (≈ 0.184 µM); MIC (Clostridium sp.): 1 µg/mL (≈ 3.07 µM); MIC (Gram positive cocci): 0.7 µg/mL (≈ 2.15 µM); inhibition of anaerobic bacterial growth (anaerobic bacteria): potent inhibitors of anaerobic bacterial growth
6 | O=C1OC(CO)CN1c1ccc(S(=O)(=O)C(F)(F)C(F)F)cc1 (stereo not drawn) [5-Hydroxymethyl-3-[4-(1,1,2,2-tetrafluoroethylsulfonyl)phenyl]-2-oxazolidinone] | 108 | 12.5 (≈ 35 µM) | 
7 | CC(=O)OCC1CN(c2ccc(S(C)(=O)=O)cc2)C(=O)O1 (stereo not drawn) [5-Acetoxymethyl-3-(4-methylsulfonyl)phenyl-2-oxazolidinone] | 100 | > 50 | 
8 | CCS(=O)(=O)c1ccc(N2CC(CCl)OC2=O)cc1 (stereo not drawn) [5-chloromethyl-3-(4-ethylsulfonyl)phenyl-2-oxazolidinone] |  | 50 (≈ 165 µM) | 
9 | C[S+]([O-])c1ccc(N2CC(CCl)OC2=O)cc1 (stereo not drawn) [5-chloromethyl-3-(4-methylsulfinyl)phenyl-2-oxazolidinone] |  | 25 (≈ 91.3 µM) | 
10 | O=C1OC(CO)CN1c1ccc(S(=O)(=O)C(F)F)cc1 (stereo not drawn) [5-Hydroxymethyl-3-(4-difluoromethylsulfonylphenyl)-2-oxazolidinone] | 23 | 3.1 (≈ 10.1 µM) | ED50 (Escherichia coli): 27 mg/kg
11 | C[S+]([O-])c1ccc(N2CC(CO)OC2=O)cc1 (stereo not drawn) [5-Hydroxymethyl-3-(4-methylsulfinylphenyl)-2-oxazolidinone] | 27 | 50 (≈ 196 µM) | 
12 | CS(=O)(=O)c1ccc(N2CC(CO)OC2=O)cc1 (racemic) [5-Hydroxymethyl-3-(4-methylsulfonylphenyl)-2-oxazolidinone] | 18 | 12.5 (≈ 46.1 µM) | ED50 (Escherichia coli): 40 mg/kg
13 | CS(=O)(=O)c1ccc(N2C[C@H](CO)OC2=O)cc1 [R-(-)-3-(4-Methylsulfonylphenyl)-5-hydroxymethyl-2-oxazolidinone] | 9 | 12.5 (≈ 46.1 µM) | MIC (Streptococci sp.): 3.7 µg/mL (≈ 13.6 µM); MIC (E. coli): 21.7 µg/mL (≈ 80 µM); MIC (Shigella sp.): 11.6 µg/mL (≈ 42.8 µM); MIC (Hemophilus influenzae): 16 µg/mL (≈ 59 µM); MIC (Serratia sp.): ≥ 108 µg/mL; MIC (Klebsiella sp.): 37.5 µg/mL (≈ 138 µM); MIC (Salmonella sp.): 16 µg/mL (≈ 59 µM); MIC (Proteus sp.): 21.7 µg/mL (≈ 80 µM); MIC (Neisseria sp.): 10.5 µg/mL (≈ 38.7 µM); MIC (Enterobacter sp.): 37.9 µg/mL (≈ 140 µM); MIC (Pseudomonas sp.): ≥ 128 µg/mL; MIC (Staphylococci sp.): 3.8 µg/mL (≈ 14 µM); MIC (Providencia sp.): 26.7 µg/mL (≈ 98.4 µM); ED50 (Escherichia coli): 25 mg/kg; MIC (Bacteroides sp.): 3.4 µg/mL (≈ 12.5 µM); MIC (Fusobacterium sp.): 0.3 µg/mL (≈ 1.11 µM); MIC (Clostridium sp.): 7 µg/mL (≈ 25.8 µM); MIC (Gram positive cocci): 1.3 µg/mL (≈ 4.79 µM); inhibition of anaerobic bacterial growth (anaerobic bacteria): potent inhibitors of anaerobic bacterial growth
14 | O=C1OC(CCl)CN1c1ccc(S(=O)(=O)C(F)(F)C(F)F)cc1 (stereo not drawn) [5-Chloromethyl-3-[4-(1,1,2,2-tetrafluoroethylsulfonyl)phenyl]-2-oxazolidinone] | 92 | 10 (≈ 26.6 µM) | 
15 | CS(=O)(=O)c1ccc(N2CC(COC(=O)CCC(=O)O)OC2=O)cc1 (single isomer, unassigned) [l-3-(4-Methylsulfonylphenyl)-2-oxooxazolidin-5-ylmethyl 1,4-Butanediodic Acid Mono Ester, Mono Sodium Salt] | 20 |  | 
16 | O=C1OC(CCl)CN1c1ccc(S(=O)(=O)C(F)(F)F)cc1 (stereo not drawn) [5-Chloromethyl-3-(4-trifluoromethylsulfonylphenyl)-2-oxazolidinone] | 105 | 4.7 (≈ 13.7 µM) | 
17 | CS(=O)(=O)c1ccc(N2CC(CBr)OC2=O)cc1 (stereo not drawn) [5-Bromomethyl-3-(4-methylsulfonyl)phenyl-2-oxazolidinone] |  | 5 (≈ 15 µM) | 
18 | CS(=O)(=O)c1ccc(N2CC(CF)OC2=O)cc1 (stereo not drawn) [5-Fluoromethyl-3-(4-methylsulfonyl)phenyl-2-oxazolidinone] | 35 | 20 (≈ 73.2 µM) | 

Source: US4340606A, “3-(p-Alkylsulfonylphenyl)oxazolidinone derivatives as antibacterial agents” (E. I. Du Pont de Nemours and Company, priority 1980, dated 1982)
